Assay results from PMC11116102, “A naturally occurring variant of SHLP2 is a protective factor in Parkinson’s disease” (Molecular Psychiatry, 2024).
No end group written: not given here.

Key:
[1] = system: dopamine levels in the striatum; test: Striatal dopamine in MPTP-lesioned mice (HPLC with electrochemical detection); assay type: in vivo; conditions: C57BL/6 mice, MPTP 20 mg/kg, n = 8 per group
Method: C57BL/6 male mice, 8 to 10 weeks of age were purchased from Jackson Labs (Bar Harbor, Maine). 1-methyl-4- phenyl- 1,2,3,6-tetrahydropyridine (MPTP) (Selleck Chemicals Co., Houston, TX) was prepared to a concentration of […] free-base in 0.9% saline on the day of use. C57BL/6 mice were injected with 20 mg/kg free-base MPTP. 8 days after the last injection of MPTP, mice were killed by cervical dislocation and the brain quickly removed and placed on wet ice. Striatal tissues for HPLC analysis and western immunoblotting were collected fresh corresponding to anatomical regions from bregma 1.20 to bregma 0.60, with borders dorsal to the anterior commissure, ventral to the corpus callosum, medial to the lateral ventricle, and 2.5 mm lateral from midline, and frozen at -80 °C until analysis. All procedures utilizing MPTP lesioning and tissue collection were approved by the USC IACUC.
Dopamine concentrations were determined according to an adaptation of Irwin et al. from the method of Kilpatrick et al.. […] The protein pellet was resuspended in 0.5 N NaOH and the total protein concentration determined using the BCA Protein Assay (Pierce, Rockford, IL), a Biotek Model Elx800 microplate reader (Biotek Instruments, Wincoski, VT) and KCjunior software. […]

HEK293 cells = test: Cycloheximide pulse-chase protein stability; assay type: cell-based; conditions: HEK293 transiently transfected with C-terminal EGFP-tagged construct; 100ug/ml cycloheximide for the indicated time; western blot, Image J; n = 3/per group
Method: Cells were lysed with RIPA Lysis and Extraction Buffer (ThermoFisher Scientific) plus the Halt protease & phosphatase inhibitor cocktail (ThermoFisher Scientific). The lysates were incubated on ice for 10 min then homogenized using a sonicator, and the supernatant was collected by centrifugation at 15,000 x g for 15 min at 4 °C. Protein content in the cellular lysates was quantified using the Pierce™ BCA Protein Assay Kit (ThermoFisher Scientific). Predetermined amounts of proteins (10-30μg) were separated on 8-16% SDS-PAGE gels and blotted onto PVDF membranes (Biorad, Hercules, CA, USA). Membranes were incubated with primary antibody at 4 °C overnight according to the manufacturer’s instructions. After several washes with Tris-buffered saline containing 0.1% Tween-20, membranes were incubated at room temperature for 1 hr with the appropriate HRP-conjugated secondary antibody. Clarity™ Western ECL substrate (Biorad) was used for detecting specific bands. Membranes were imaged on a Bio-Rad ChemiDoc XRS^+ imager. If necessary, relative intensities of the bands in each condition were measured using Image J, a free software program provided by National Institute of Health (Bethesda, Maryland, USA).
Cycloheximide, an inhibitor of protein biosynthesis, was used to examine protein stability in cells. […] The protein quantity from western blot was examined with Image J.

[2] = system: HeLa expressing HA- EGFP- OMP25 (HA-MITO); test: Rapid mitochondria immunoprecipitation, localization of synthetic SHLP2; assay type: cell-based; conditions: synthetic SHLP2 treatment, western blot
Method: Mitochondria isolation from HeLa cells expressing HA-EGFP-OMP25 (HA-MITO) or myc-EGFP-OMP25 (CON-MITO) was performed according to the published article. Briefly, cells were lysed in KPBS buffer (136 mM KCl, 10 mM KH2PO4, pH 7.25) and homogenized with 25 strokes of a 2 ml homogenizer. The homogenate was spun down at 1000 g for 2 min. The supernatant was incubated with anti-HA magnetic beads on an end-over-end rotator for 3.5 min. The beads were washed with KPBS buffer, incubated for 10 min with lysis buffer (1% triton X-100 lysis buffer with protease inhibitor cocktail), and spun down at 17000 g for 10 min. The supernatants were used for western blot.

## CN1CC=C(c2ccccc2)CC1 [MPTP, 1-methyl-4-phenyl-1,2,3,6-tetrahydropyridine]
[1]
  dopamine levels in the striatum, toxin alone: significant decrease in dopamine levels

## MGVRFFTLSTRFFPSVQRAVPLWTNS [K4R SHLP2]
HEK293 cells
  protein stability, pulse-chase: more stable than WT SHLP2

## MGVKFFTLSTRFFPSVQRAVPLWTNS [WT SHLP2]
[2]
  mitochondrial localization of synthetic peptide: localized in the mitochondria after 30 min of treatment
